Assay results reported in PMC4152014, “Glucagon-Like Peptide-1 Receptor Ligand Interactions: Structural Cross Talk between Ligands and the Extracellular Domain” (PLoS ONE, 2014).
Entries after “also recorded” stand apart in the source; their conditions may differ.

How the values were obtained:
[1] = system: nGLP-1R (N-terminal extracellular domain of GLP-1R, amino acids 24-145); experiment: Differential HDX of the nGLP-1R peptide […] in the presence of ligands; format: binding; conditions: HDX-MS; for average change in % Deuterium (Δ %D) in nGLP-1R peptide WETVQKWRE: 7TM HDX buffer pH 7.5 (50 mM Hepes, 150 mM NaCl, 2% glycerol, 0.05% DDM, 0.01% CHS), stock 10 µM nGLP-1R, peptide ligands 20 µM or small molecules 100 µM, 1 h equilibration at 4°C, on-exchange 10-3600 s, 80% D2O, 4°C, 3-4 replicates, back exchange corrected with estimated 70% recovery; for protection to exchange of nGLP-1R (result in words): peptides spanning Trp32 to Glu40 of nGLP-1R, DDM/CHS micelles, pH 7.5, 4°C, significance P < 0.05 at two consecutive time points
From the text: (§1) Exendin-4 (cat # E7144), HPLC grade H2O, D2O (99.9%), acetonitrile, formic acid, tris-(carboxyethyl)-phosphinehydrochloride (TCEP), NaCl, NaH2PO4 and glycerol were purchased from Sigma-Aldrich. Exendin-4[9-39] […] The GLP-1R ligands 6-BPPI (6-(2,5-dichlorobenzyl)-1-hydroxy-2-(2-morpholin-4-ylethyl)-1,6-dihydropyrrolo[3′,4′:5,6]pyrido[3,4-B]indol-3(2H)-one), Boc-5 [23], T-0632 (sodium (S)-3-[1-(2-fluorophenyl)-2,3-dihydro-3-[(3-isoquinolinyl-carbonyl)amino]-6-methoxy-2-oxo-1H-indole]propanoate), [25] and TT15 (2S)-2-[[(8S)-7-benzoyl-3-[4-[(3,4-dichlorophenyl)methoxy]phenyl]-2-oxo-1,6,8,9-tetrahydropyrido[4,3-g][1,4]benzoxazine-8-carbonyl]amino]-3-[4-(4-cyanophenyl)phenyl]propanoic acid) were synthesized according to standard or published methods at Eli Lilly. Trifluoroacetic acid (TFA, Sequanal grade) was obtained from Pierce. High purity n-dodecyl-β-D-maltoside (DDM) and cholesterol hemisuccinate (CHS) were purchased from Avanti Polar Lipids. The porcine pepsin-immobilized POROS 20 AL beads (particle size 20 µm) used to pack immobilized pepsin columns were purchased from Applied Biosystems. The model peptide for gas phase scrambling experiments, […], was purchased from the American Peptide Company (#350416).

[2] = system: nGLP-1R (N-terminal extracellular domain of GLP-1R, amino acids 24-145); experiment: Differential HDX of peptide ligands in the presence vs absence of nGLP-1R; format: binding; conditions: HDX-MS, stock 10 µM peptide with or without 20 µM nGLP-1R, DDM/CHS micelles, pH 7.5, 4°C; for protection to exchange of ligand amides near helix bend / FxxWL motif upon binding nGLP-1R: 10-3600 s, protection confined from Ala18 to Asn28
From the text: as §1

[3] = system: nGLP-1R (N-terminal extracellular domain of GLP-1R, amino acids 24-145); experiment: Single amino acid resolution HDX by ETD of Phe22-Ser39 peptic peptide; format: binding; conditions: DDM/CHS micelles
Procedure: To optimize the instrument parameters and to monitor gas-phase scrambling, we employed the model peptide […] described by the Jorgensen group. Complete deuteration was achieved by incubation of the peptide in deuterated buffer (20 mM NaH2PO4, pH 2.6) for one hour at 4°C. HDX off-exchange was initiated by a 10-fold dilution into infusion buffer (50% MeOH, 0.5 M CH3COOH, pH 2.6) followed by elution over the same LC configuration used for HDX after 30 s of off-exchange. Under these conditions the peptide eluted in ∼1.6 minutes. Full-scan and ETD MS/MS spectra were acquired on the LTQ Orbitrap XL ETD. Instrument conditions were identical to those published previously except the capillary temperature was set to 75°C. Varying isolation widths and capillary temperatures were tested to minimize scrambling and maintain ion signal intensity (Figure S3). A capillary temperature of 75°C and isolation width of 12 amu was used for ETD of exendin-4[9-39]. Five replicates were run after 30 s of deuterium exchange for exendin-4[9-39] in the presence and absence of nGLP-1R on the same LC configuration described above.

[4] = pH 7.5
Procedure: All stock solutions and dilutions were made using the 7TM HDX buffer. The 7TM HDX buffers were composed of 50 mM Hepes (pH 7.5), 150 mM NaCl, 2% (v/v) glycerol, 0.05% (m/v) DDM, and 0.01% (m/v) CHS in either H2O or in D2O for on-exchange. All HDX stock solutions of the N-terminal extracellular domain of the glucagon-like peptide-1 receptor (nGLP-1R) were prepared at 10 µM nGLP-1R in the 7TM HDX H2O buffer. […] All HDX stock solutions of the peptides were at 10 µM. When ligands were studied in the presence of the nGLP-1R the stock solutions contained 20 µM nGLP-1R. When ligands and receptor were mixed in stock solutions they were allowed to equilibrate for one hour at 4°C.
Solution-phase amide HDX was carried out with a fully automated system described previously [17]. […]
Mass spectra were acquired in the range of m/z 300–2000 at a resolution of 60,000 for 8 min in positive ion mode on an LTQ Orbitrap XL ETD mass spectrometer (Thermo Fisher Scientific) equipped with an ESI source operated at capillary temperature of 225°C and spray voltage of 3.5 kV. The intensity weighted average m/z value (centroid) of each peptide's isotopic envelope was calculated with in-house developed software; Workbench (Pascal et al. 2013) and converted to % Deuterium values. […]

[5] = system: extracellular domain of GLP-1R; conditions: cited from earlier work
[6] = molecular target: T1, wild-type GLP-1R (NP_002053) (Homo sapiens, UniProt P43220); experiment: cAMP accumulation in HEK293 cells transfected with wild-type GLP-1R; format: cell-based; conditions: for IC50: IC50, antagonism of GLP-1 induced cAMP accumulation
T1 construct: HEK293 cells were transfected with plasmids expressing either wild-type GLP-1R (NP_002053); expressed in transfected cells; host or cells: HEK293
Procedure: (§2) cAMP accumulation assays were performed as previously described. HEK293 cells were transfected with plasmids expressing either wild-type GLP-1R (NP_002053) or chimera nGIP-R:GLP-1R (amino acids 1-124 of GIP-R (NP_000155) fused in-frame with amino acids 137-463 of GLP-1R).
(§3) Figure 4 Changes to HDX of nGLP-1R in the Presence of Peptide and Small Molecule Ligands. […] Deuterium exchange was measured in the presence of DDM/CHS micelles as indicated in the Experimental section The exendin-4[9-39] peptide ligand is colored gray. B) Table showing the average change in % Deuterium in this same nGLP-1R peptide ([…]) for four peptide ligands and four proposed small molecule ligands.

[7] = system: chimera nGIP-R:GLP-1R (amino acids 1-124 of GIP-R (NP_000155) fused in-frame with amino acids 137-463 of GLP-1R); experiment: cAMP accumulation in HEK293 cells transfected with chimera nGIP-R:GLP-1R; format: cell-based; conditions: GIPR/GLP-1R chimera, EC50 to EC80 concentrations of GLP-1
Procedure: as §2, §3

[8] = 30 s of exchange, apo vs nGLP-1R bound, 5 replicates

T1 sequence (P43220 24-463): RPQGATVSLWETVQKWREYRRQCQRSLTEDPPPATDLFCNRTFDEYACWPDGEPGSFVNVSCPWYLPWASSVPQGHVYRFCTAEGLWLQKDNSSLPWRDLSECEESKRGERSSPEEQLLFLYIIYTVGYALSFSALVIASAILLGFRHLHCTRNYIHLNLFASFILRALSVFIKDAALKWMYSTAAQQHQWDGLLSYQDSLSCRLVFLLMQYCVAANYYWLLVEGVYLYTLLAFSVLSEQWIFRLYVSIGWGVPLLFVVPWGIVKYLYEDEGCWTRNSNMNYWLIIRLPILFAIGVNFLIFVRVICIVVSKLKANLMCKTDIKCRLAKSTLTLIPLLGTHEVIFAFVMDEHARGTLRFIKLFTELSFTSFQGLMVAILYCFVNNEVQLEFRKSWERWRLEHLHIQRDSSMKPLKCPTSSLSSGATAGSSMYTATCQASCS

COc1cc(C2C(NC(=O)c3ccc(NC(=O)OC(C)(C)C)cc3)(C(=O)O)C(c3ccc(OC(=O)c4cccs4)c(OC)c3)C2(NC(=O)c2ccc(NC(=O)OC(C)(C)C)cc2)C(=O)O)ccc1OC(=O)c1cccs1 (centres unmarked) [Boc-5]
average change in % Deuterium (Δ %D) in nGLP-1R peptide WETVQKWRE [1]: -12% | protection to exchange of nGLP-1R (result in words) [1]: thermodynamic stabilizing interactions

exendin-4[9-39]: N-terminal truncated exendin-4, a potent antagonist; Bachem cat # H-8740
average change in % Deuterium (Δ %D) in nGLP-1R peptide WETVQKWRE [1]: -20% | protection to exchange of nGLP-1R (result in words) [1]: significant protection to exchange | protection to exchange of ligand amides near helix bend / FxxWL motif upon binding nGLP-1R [2]: showed protection to their hydrogen bonding network around the FxxWL motif | deuterium incorporation for fragments from Trp25 to Asn28, absence of nGLP-1R ([3]; 30 s of exchange, apo state, 5 replicates): increasing deuterium incorporation for fragments from Trp25 to Asn28 | change in deuterium incorporation at Asn28 turn in the presence of nGLP-1R [3, 8]: small but statistically significant increase in deuterium incorporation | protection at Trp25, Leu26 and Lys27 by nGLP-1R [3, 8]: Significant protection | deuterium exchanged at amide of Asn28 in the presence of nGLP-1R ([3]; exendin-4[9-39] with nGLP-1R, after 30 s of exchange, average of 5 replicates): 0.33 deuterium | deuterium incorporation / stability of hydrogen bonding network of the free peptide [4]: significantly destabilized in the presence of nonionic detergents as compared to the agonist exendin-4 | affinity for extracellular domain of GLP-1R (in words) [5]: high affinity

exendin-4: GLP-1R peptide agonist, Sigma-Aldrich cat # E7144; DPP4 resistant mimetic
average change in % Deuterium (Δ %D) in nGLP-1R peptide WETVQKWRE [1]: -21% | protection to exchange of nGLP-1R (result in words) [1]: significant protection to exchange | change in deuterium exchange at N-terminal amino acids His1 to Glu17 upon binding nGLP-1R [2]: no statistically significant change in the magnitude of deuterium exchange | protection to exchange of ligand amides near helix bend / FxxWL motif upon binding nGLP-1R [2]: showed protection to their hydrogen bonding network around the FxxWL motif | deuterium incorporation / stability of hydrogen bonding network of the free peptide [4]: Lower deuterium incorporation was observed for all homologous peptides | affinity for extracellular domain of GLP-1R (in words) [5]: high affinity

O=C1c2ncc3c(c2C(O)N1CCN1CCOCC1)c1ccccc1n3Cc1cc(Cl)ccc1Cl (centres unmarked) [6-BPPI, 6-(2,5-dichlorobenzyl)-1-hydroxy-2-(2-morpholin-4-ylethyl)-1,6-dihydropyrrolo[3′,4′:5,6]pyrido[3,4-B]indol-3(2H)-one]
average change in % Deuterium (Δ %D) in nGLP-1R peptide WETVQKWRE [1]: -27% | protection to exchange of nGLP-1R (result in words) [1]: thermodynamic stabilizing interactions | antagonism of GLP-1 signalling (result in words) ([6]; HEK293 cells, EC50 to EC80 concentrations of GLP-1): Dose-dependent blockade of GLP-1R signalling; also recorded: effective antagonist of the GLP-1R | IC50 ([6]; 10 pM GLP-1, HEK293 cells): 33 nM | IC50 ([6]; 30 pM GLP-1, HEK293 cells): 110 nM | IC50 ([6]; 100 pM GLP-1, HEK293 cells): 310 nM | antagonism of GLP-1 signalling (result in words) [7]: not GIPR/GLP-1R; also recorded: inactive on a chimeric receptor

oxyntomodulin: peptide agonist, Bachem #H-6058
average change in % Deuterium (Δ %D) in nGLP-1R peptide WETVQKWRE [1]: -10% | protection to exchange of nGLP-1R (result in words) [1]: protection to exchange was observed
